Measurements: PMC13095408, “DBeQ derivative targets vacuolar protein sorting 4 functions in cancer cells and suppresses tumor growth in mice” (The Journal of Pharmacology and Experimental Therapeutics, 2025)

Experiments:
[1] = target: T1, VPS4B (Homo sapiens, UniProt O75351); experiment: VPS4B cellular thermal shift assay (CETSA); assay type: cell-based; design: endogenous in cells; host or cells: U2OS; conditions: 2 μM 4-107, 1 hour, starved U2OS cells
T1 sequence (O75351 1-444): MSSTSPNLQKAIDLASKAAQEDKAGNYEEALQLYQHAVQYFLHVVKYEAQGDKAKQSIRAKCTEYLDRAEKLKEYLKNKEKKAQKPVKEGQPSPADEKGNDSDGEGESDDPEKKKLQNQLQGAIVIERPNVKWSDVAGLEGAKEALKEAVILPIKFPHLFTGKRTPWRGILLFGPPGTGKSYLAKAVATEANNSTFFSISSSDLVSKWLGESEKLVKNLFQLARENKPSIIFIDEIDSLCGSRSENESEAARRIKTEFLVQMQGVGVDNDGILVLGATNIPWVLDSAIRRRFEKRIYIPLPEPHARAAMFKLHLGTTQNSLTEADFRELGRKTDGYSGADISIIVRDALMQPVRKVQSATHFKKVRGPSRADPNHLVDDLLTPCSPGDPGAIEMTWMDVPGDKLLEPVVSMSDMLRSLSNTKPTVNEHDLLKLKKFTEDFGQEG
Method: The VPS4B CETSA was performed as previously described with modification ([Jafari et al, 2014]). In 10-cm dishes, near-confluent U2OS cells were rinsed with 1× DPBS and treated with the indicated compounds in acclimatized SM for 1 hour at 37 °C (0.1% DMSO). Cells were trypsinized, pelleted at 300 × g for 5 minutes, and washed with 1× PBS. After repeat pelleting at 300 × g for 5 minutes, the cells were resuspended in 1× PBS with protease inhibitor cocktail (1:250) and aliquoted into PCR strips with 20 μL per tube. PCR strips for each treatment were heated on a temperature gradient for 3 minutes using a thermal cycler (Bio-Rad Laboratories), followed by incubation at RT for 3 minutes. […] To normalize protein loading for SDS-PAGE, the soluble protein concentration of each 37 °C sample was quantified via the Pierce BCA assay ([…]), and a volume equal to 10 μg of protein was used for all samples from the same treatment. […] Signals were acquired with the Odyssey CLx (LI-COR) and quantified via densitometry using Image Studio version 6 (LI-COR). The remaining VPS4B levels were calculated by first obtaining the ratio of VPS4B:ACTB band intensities of each sample and then normalizing these ratios to that of the respective 37 °C sample. […]

[2] = test system: U2OS cells; experiment: Immunoblot analysis of VPS4- and VCP-mediated pathways (autophagy, ER stress, ERAD); assay type: cell-based
Method: Whole-cell lysates were prepared in radio-immunoprecipitation buffer (25 mM Tris-HCl, pH 8.0, 150 mM NaCl, 1 mM EDTA, 1% v/v IGEPAL CA-630, 0.5% w/v sodium deoxycholate, and 1% v/v SDS) containing protease (1:250) and phosphatase inhibitor cocktails (1:100) then resolved via SDS-PAGE and probed with the indicated antibodies. Signals were acquired with the Odyssey CLx (LI-COR) for fluorescence or Odyssey XF (LI-COR) for chemiluminescence detection and visualized in Image Studio version 6 (LI-COR).
VPS4 is essential for autophagy and loss of VPS4 function inhibits autophagic flux ([Takahashi et al, 2018]; [Zhen et al, 2019]). Meanwhile, VCP is required for endoplasmic reticulum-associated degradation (ERAD; [Rabinovich et al, 2002]) where VCP inhibition results in the accumulation of ubiquitinated proteins and induction of ER stress ([Weihl et al, 2006]; [Bastola et al, 2016]).

[3] = 5 μM DBeQ, 0.6 μM CB-5083, 1 μM 4-107, complete media

COc1cccc2c(NCc3ccccc3)nc(NCc3ccccc3)nc12 [Compound 4-107, N^2,N^4-dibenzyl-8-methoxyquinazoline-2,4-diamine]
decrease of VPS4B Tagg [1]: approximately 3 °C
accumulation of K48-linked polyubiquitinated proteins ([2]; 0.6 μM CB-5083, 1 μM 4-107, complete media): did not induce ER stress or the accumulation of polyubiquitinated proteins
VCP pathway (ubiquitinated proteins, ATF4, SQSTM1) ([2]; 5 μM 4-107, 4 hours, complete media): VCP pathway perturbation
ER stress (HSPA5, ATF4) [2, 3]: did not induce ER stress
autophagy (SQSTM1, LC3-II) [2, 3]: inhibited autophagy over time
